Tests used:
Assay in all cases: HTRF/ADP-Glo kinase selectivity panel
Format in all cases: biochemical
Conditions in all cases: 500 nM, read-out: 1D228(%inhibition)@500nM
[1] = target: T1, EPHB2 (Homo sapiens, UniProt P29323)
T1 construct: purchased Invitrogen (c-Met, TRKA, TRKB, TRKC)
Protocol: (§1) The compound was serial diluted from 10 mM stock in DMSO, dilute the test compound to 0.1 mM (200 times the specified test concentration). 2 × ATP & Substrate solution and 2 × kinase & Metal solution were prepared using assay buffer; Transfer 25 nL compound to 384 assay plate by Echo 655; After centrifugation, add 2.5 μL 2 × kinase/metal ion solution 384 assay plate, and incubate at 25 °C for 10 min. 2 × XL665 & Antibody solution were prepared with detection buffer; 5 μL of Kinase Detection Reagent was added to the well, and incubated for 60 min at 25 °C; The fluorescence signals of 620 nm (Cryptate) and 665 nm (XL665) were read by microtiter plate reader; […]

[2] = target: T2, FAK (Homo sapiens, UniProt Q05397)
T2 construct: purchased Invitrogen (c-Met, TRKA, TRKB, TRKC)
Protocol: as §1

[3] = target: T3, CSK (Homo sapiens, UniProt P41240)
T3 construct: purchased Invitrogen (c-Met, TRKA, TRKB, TRKC)
Protocol: as §1

[4] = target: T4, BTK (Homo sapiens, UniProt Q06187)
T4 construct: purchased Invitrogen (c-Met, TRKA, TRKB, TRKC)
Protocol: as §1

[5] = target: T5, AXL (Homo sapiens, UniProt P30530)
T5 construct: purchased Invitrogen (c-Met, TRKA, TRKB, TRKC)
Protocol: as §1

[6] = target: T6, IRR (Homo sapiens, UniProt P14616)
T6 construct: purchased Invitrogen (c-Met, TRKA, TRKB, TRKC)
Protocol: as §1

[7] = target: T7, DDR1 (Homo sapiens, UniProt Q08345)
T7 construct: purchased Invitrogen (c-Met, TRKA, TRKB, TRKC)
Protocol: as §1

[8] = target: T8, ABL1 (Homo sapiens, UniProt P00519)
T8 construct: purchased Invitrogen (c-Met, TRKA, TRKB, TRKC)
Protocol: as §1

[9] = target: T9, TYK2 (Homo sapiens, UniProt P29597)
T9 construct: purchased Invitrogen (c-Met, TRKA, TRKB, TRKC)
Protocol: as §1

[10] = target: T10, RET (Homo sapiens, UniProt P07949)
T10 construct: purchased Invitrogen (c-Met, TRKA, TRKB, TRKC)
Protocol: as §1

[11] = target: T11, EPHA8 (Homo sapiens, UniProt P29322)
T11 construct: purchased Invitrogen (c-Met, TRKA, TRKB, TRKC)
Protocol: as §1

[12] = target: T12, EPHA1 (Homo sapiens, UniProt P21709)
T12 construct: purchased Invitrogen (c-Met, TRKA, TRKB, TRKC)
T12 sequence (P21709 26-976): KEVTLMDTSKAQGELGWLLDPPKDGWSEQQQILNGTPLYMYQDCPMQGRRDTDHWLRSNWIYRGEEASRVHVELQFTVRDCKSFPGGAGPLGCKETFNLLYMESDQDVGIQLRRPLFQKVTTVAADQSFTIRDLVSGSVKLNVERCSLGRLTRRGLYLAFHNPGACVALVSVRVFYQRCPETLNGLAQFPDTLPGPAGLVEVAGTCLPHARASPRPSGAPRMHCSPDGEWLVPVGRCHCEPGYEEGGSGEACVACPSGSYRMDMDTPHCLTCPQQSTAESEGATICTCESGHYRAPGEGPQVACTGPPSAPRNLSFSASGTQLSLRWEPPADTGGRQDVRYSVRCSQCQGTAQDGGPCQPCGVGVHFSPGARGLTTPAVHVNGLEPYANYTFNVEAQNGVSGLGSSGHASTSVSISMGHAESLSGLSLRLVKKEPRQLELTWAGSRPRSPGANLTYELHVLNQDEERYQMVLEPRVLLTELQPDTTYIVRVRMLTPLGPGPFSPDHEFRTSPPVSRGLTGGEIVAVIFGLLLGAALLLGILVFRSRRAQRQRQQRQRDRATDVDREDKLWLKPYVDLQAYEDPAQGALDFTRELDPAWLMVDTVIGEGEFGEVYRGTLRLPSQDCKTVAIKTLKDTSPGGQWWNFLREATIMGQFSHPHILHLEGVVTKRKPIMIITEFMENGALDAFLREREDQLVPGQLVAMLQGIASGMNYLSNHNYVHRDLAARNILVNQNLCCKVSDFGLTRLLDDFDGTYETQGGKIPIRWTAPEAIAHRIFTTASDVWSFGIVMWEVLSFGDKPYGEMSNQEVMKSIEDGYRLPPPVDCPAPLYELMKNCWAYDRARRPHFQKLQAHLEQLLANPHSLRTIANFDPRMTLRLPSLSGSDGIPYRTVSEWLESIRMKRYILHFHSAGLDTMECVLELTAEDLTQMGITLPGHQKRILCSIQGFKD
Protocol: as §1

[13] = target: T13, KIT (Homo sapiens, UniProt P10721)
T13 construct: purchased Invitrogen (c-Met, TRKA, TRKB, TRKC)
T13 sequence (P10721 26-976): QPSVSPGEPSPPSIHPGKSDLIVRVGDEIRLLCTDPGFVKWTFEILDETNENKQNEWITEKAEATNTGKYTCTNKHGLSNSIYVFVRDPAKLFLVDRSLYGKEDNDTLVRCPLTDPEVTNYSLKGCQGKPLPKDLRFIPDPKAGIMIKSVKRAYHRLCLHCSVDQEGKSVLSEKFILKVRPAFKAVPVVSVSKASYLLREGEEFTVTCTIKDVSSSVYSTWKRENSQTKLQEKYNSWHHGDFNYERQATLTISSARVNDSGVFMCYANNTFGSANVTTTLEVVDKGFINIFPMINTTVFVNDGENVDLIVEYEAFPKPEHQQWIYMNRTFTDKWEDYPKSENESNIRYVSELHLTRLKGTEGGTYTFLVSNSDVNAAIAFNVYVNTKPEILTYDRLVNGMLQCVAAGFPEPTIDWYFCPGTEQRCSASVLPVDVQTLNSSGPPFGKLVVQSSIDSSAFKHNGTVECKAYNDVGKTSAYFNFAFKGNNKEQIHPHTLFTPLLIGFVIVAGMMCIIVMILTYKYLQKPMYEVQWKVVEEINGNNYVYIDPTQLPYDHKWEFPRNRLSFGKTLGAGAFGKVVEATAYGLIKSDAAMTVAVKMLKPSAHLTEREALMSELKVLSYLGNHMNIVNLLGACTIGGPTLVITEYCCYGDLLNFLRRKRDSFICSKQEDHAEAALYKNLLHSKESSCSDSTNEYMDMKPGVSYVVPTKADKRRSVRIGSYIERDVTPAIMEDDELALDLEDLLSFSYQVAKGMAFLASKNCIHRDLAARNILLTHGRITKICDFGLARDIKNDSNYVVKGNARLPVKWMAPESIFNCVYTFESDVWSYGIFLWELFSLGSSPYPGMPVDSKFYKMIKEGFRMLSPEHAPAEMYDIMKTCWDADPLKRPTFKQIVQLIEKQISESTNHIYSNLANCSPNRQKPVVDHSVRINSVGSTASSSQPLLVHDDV
Protocol: as §1

[14] = target: T14, FGR (Homo sapiens, UniProt P09769)
T14 construct: purchased Invitrogen (c-Met, TRKA, TRKB, TRKC)
Protocol: as §1

[15] = target: T15, EGFR T790M L858R (Homo sapiens, UniProt P00533, L858R/T790M)
T15 construct: purchased Invitrogen (c-Met, TRKA, TRKB, TRKC)
Protocol: as §1

[16] = target: T16, LYNb (Homo sapiens, UniProt P07948)
T16 construct: purchased Invitrogen (c-Met, TRKA, TRKB, TRKC)
Protocol: as §1

[17] = target: T17, HCK (Homo sapiens, UniProt P08631)
T17 construct: purchased Invitrogen (c-Met, TRKA, TRKB, TRKC)
Protocol: as §1

[18] = target: T18, SRC (Homo sapiens, UniProt P12931)
T18 construct: purchased Invitrogen (c-Met, TRKA, TRKB, TRKC)
Protocol: as §1

[19] = target: T19, EPHA4 (Homo sapiens, UniProt P54764)
T19 construct: purchased Invitrogen (c-Met, TRKA, TRKB, TRKC)
Protocol: as §1

[20] = target: T20, MER (Homo sapiens, UniProt Q12866)
T20 construct: purchased Invitrogen (c-Met, TRKA, TRKB, TRKC)
Protocol: as §1

[21] = target: T21, HER2 (Homo sapiens, UniProt P04626)
T21 construct: purchased Invitrogen (c-Met, TRKA, TRKB, TRKC)
Protocol: as §1

[22] = target: T22, EPHA2 (Homo sapiens, UniProt P29317)
T22 construct: purchased Invitrogen (c-Met, TRKA, TRKB, TRKC)
Protocol: as §1

[23] = target: T23, MUSK (Homo sapiens, UniProt O15146)
T23 construct: purchased Invitrogen (c-Met, TRKA, TRKB, TRKC)
T23 sequence (O15146 24-869): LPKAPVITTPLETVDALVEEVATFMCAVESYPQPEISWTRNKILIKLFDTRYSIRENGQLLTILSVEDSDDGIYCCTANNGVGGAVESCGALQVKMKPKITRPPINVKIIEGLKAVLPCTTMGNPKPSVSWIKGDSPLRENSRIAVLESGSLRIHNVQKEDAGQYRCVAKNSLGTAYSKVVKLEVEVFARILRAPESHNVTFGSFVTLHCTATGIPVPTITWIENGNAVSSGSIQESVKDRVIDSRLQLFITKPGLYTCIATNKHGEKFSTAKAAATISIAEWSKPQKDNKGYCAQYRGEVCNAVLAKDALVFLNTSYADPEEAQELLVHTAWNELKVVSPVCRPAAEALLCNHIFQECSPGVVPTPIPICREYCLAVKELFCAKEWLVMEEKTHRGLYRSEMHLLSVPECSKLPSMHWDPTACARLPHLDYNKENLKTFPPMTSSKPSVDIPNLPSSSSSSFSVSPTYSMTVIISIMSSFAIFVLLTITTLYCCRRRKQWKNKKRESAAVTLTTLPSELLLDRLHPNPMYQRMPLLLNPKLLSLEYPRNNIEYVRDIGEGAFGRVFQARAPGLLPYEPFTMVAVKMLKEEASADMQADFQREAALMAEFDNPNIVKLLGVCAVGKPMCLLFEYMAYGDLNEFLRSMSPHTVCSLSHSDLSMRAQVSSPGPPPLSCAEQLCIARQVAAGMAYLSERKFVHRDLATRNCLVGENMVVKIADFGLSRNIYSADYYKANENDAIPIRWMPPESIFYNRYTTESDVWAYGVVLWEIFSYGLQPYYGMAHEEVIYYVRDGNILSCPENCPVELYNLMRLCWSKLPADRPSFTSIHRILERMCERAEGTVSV
Protocol: as §1

[24] = target: T24, EPHA5 (Homo sapiens, UniProt P54756)
T24 construct: purchased Invitrogen (c-Met, TRKA, TRKB, TRKC)
T24 sequence (P54756 25-1037): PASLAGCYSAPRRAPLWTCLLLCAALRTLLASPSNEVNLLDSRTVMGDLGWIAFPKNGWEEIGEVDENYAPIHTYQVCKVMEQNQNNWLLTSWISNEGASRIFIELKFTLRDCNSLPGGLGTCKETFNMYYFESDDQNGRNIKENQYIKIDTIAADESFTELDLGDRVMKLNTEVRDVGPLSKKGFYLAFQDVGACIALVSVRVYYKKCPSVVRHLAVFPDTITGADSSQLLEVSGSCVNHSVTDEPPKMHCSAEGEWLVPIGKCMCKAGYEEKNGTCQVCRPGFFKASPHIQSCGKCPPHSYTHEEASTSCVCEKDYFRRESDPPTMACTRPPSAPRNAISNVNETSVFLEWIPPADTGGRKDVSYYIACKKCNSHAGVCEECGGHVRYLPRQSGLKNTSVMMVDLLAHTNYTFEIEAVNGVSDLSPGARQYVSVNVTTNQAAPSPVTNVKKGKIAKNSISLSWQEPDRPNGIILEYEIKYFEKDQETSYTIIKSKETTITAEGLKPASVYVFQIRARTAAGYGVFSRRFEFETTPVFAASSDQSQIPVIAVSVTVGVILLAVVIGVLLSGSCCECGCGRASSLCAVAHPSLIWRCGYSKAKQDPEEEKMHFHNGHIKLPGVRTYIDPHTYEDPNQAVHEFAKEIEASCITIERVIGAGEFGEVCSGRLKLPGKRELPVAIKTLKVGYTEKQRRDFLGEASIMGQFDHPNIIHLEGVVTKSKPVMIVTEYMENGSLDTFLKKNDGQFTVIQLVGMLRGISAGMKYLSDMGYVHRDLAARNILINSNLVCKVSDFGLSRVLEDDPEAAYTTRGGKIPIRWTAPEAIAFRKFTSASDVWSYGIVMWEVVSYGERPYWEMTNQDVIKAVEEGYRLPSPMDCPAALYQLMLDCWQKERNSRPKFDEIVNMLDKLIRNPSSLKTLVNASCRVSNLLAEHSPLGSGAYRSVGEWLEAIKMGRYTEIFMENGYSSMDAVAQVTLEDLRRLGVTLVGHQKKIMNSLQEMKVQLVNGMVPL
Protocol: as §1

[25] = target: T25, FGFR3 (Homo sapiens, UniProt P22607)
T25 construct: purchased Invitrogen (c-Met, TRKA, TRKB, TRKC)
Protocol: as §1

[26] = target: T26, LYNa (Homo sapiens, UniProt P07948)
T26 construct: purchased Invitrogen (c-Met, TRKA, TRKB, TRKC)
Protocol: as §1

[27] = target: T27, EPHB4 (Homo sapiens, UniProt P54760)
T27 construct: purchased Invitrogen (c-Met, TRKA, TRKB, TRKC)
Protocol: as §1

[28] = target: T28, RON (Homo sapiens, UniProt Q04912)
T28 construct: purchased Invitrogen (c-Met, TRKA, TRKB, TRKC)
Protocol: as §1

[29] = target: T29, JAK1 (Homo sapiens, UniProt P23458)
T29 construct: purchased Invitrogen (c-Met, TRKA, TRKB, TRKC)
Protocol: as §1

[30] = target: T30, EGFR (Homo sapiens, UniProt P00533)
T30 construct: purchased Invitrogen (c-Met, TRKA, TRKB, TRKC)
Protocol: as §1

[31] = target: T31, EPHA3 (Homo sapiens, UniProt P29320)
T31 construct: purchased Invitrogen (c-Met, TRKA, TRKB, TRKC)
T31 sequence (P29320 21-983): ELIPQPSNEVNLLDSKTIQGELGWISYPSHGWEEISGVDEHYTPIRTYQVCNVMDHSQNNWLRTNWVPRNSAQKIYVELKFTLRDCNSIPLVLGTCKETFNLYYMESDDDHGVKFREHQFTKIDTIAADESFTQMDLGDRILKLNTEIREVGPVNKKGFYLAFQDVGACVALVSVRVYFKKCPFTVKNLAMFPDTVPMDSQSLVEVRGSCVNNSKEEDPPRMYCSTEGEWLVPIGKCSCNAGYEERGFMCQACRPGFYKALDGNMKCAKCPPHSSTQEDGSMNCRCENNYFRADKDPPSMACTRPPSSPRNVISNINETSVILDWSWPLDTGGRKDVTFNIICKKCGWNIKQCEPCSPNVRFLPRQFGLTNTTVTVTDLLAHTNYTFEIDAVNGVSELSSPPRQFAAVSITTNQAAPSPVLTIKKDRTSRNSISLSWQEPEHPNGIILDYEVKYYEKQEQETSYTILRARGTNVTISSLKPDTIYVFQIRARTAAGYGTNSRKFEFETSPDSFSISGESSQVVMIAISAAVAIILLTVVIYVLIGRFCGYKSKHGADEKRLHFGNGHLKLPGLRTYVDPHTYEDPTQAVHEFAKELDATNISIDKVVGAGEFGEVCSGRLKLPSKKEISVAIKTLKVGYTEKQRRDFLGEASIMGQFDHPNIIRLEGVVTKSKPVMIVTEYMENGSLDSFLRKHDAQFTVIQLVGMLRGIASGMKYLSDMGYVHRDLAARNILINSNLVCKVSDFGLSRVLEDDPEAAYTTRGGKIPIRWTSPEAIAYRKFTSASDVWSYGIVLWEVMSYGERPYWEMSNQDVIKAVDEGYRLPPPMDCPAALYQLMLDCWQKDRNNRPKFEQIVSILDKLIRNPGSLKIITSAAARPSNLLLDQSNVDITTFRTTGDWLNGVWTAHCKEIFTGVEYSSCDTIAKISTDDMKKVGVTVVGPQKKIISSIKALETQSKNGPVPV
Protocol: as §1

[32] = target: T32, CSF1R (Homo sapiens, UniProt P07333)
T32 construct: purchased Invitrogen (c-Met, TRKA, TRKB, TRKC)
Protocol: as §1

[33] = target: T33, SRM (Homo sapiens, UniProt Q9H3Y6)
T33 construct: purchased Invitrogen (c-Met, TRKA, TRKB, TRKC)
Protocol: as §1

[34] = target: T34, ITK (Homo sapiens, UniProt Q08881)
T34 construct: purchased Invitrogen (c-Met, TRKA, TRKB, TRKC)
Protocol: as §1

[35] = target: T35, ABL2 (Homo sapiens, UniProt P42684)
T35 construct: purchased Invitrogen (c-Met, TRKA, TRKB, TRKC)
Protocol: as §1

[36] = target: T36, MET (Homo sapiens, UniProt P08581)
T36 construct: purchased Invitrogen (c-Met, TRKA, TRKB, TRKC)
Protocol: as §1

[37] = target: T37, BRK (Homo sapiens, UniProt Q13882)
T37 construct: purchased Invitrogen (c-Met, TRKA, TRKB, TRKC)
Protocol: as §1

[38] = target: T38, TYRO3 (Homo sapiens, UniProt Q06418)
T38 construct: purchased Invitrogen (c-Met, TRKA, TRKB, TRKC)
Protocol: as §1

[39] = target: T39, FGFR4 (Homo sapiens, UniProt P22455)
T39 construct: purchased Invitrogen (c-Met, TRKA, TRKB, TRKC)
Protocol: as §1

[40] = target: T40, INSR (Homo sapiens, UniProt P06213)
T40 construct: purchased Invitrogen (c-Met, TRKA, TRKB, TRKC)
Protocol: as §1

With `[2H][C@@](C)(c1cccc(-c2ncc(OCC3CCN(C)CC3)cn2)c1)n1nc(-c2cccc(C#N)c2)ccc1=O` [1D228] the inhibition at 0.5 µM [1] was -3.54%, the inhibition at 0.5 µM [2] was -9.58% and the inhibition at 0.5 µM [3] was -3.07%. The inhibition at 0.5 µM [4] was -3.81%, the inhibition at 0.5 µM [5] was 89.2% and the inhibition at 0.5 µM [6] was 3.88%. It also gave an inhibition at 0.5 µM [7] of -11.8%, an inhibition at 0.5 µM [8] of 6.37% and an inhibition at 0.5 µM [9] of 4.51%. It also gave an inhibition at 0.5 µM [10] of 12.2%, an inhibition at 0.5 µM [11] of 8.52% and an inhibition at 0.5 µM [12] of -1.53%. It also gave an inhibition at 0.5 µM [13] of -4.5%, an inhibition at 0.5 µM [14] of -20.7% and an inhibition at 0.5 µM [15] of 11.1%. The inhibition at 0.5 µM [16] was 5.26%, the inhibition at 0.5 µM [17] was -4.06% and the inhibition at 0.5 µM [18] was 2.91%. The inhibition at 0.5 µM [19] was -14.7%, the inhibition at 0.5 µM [20] was 84.1% and the inhibition at 0.5 µM [21] was 8.78%. For the same molecule, the inhibition at 0.5 µM [22] was -0.798%, the inhibition at 0.5 µM [23] was 9.13% and the inhibition at 0.5 µM [24] was 3.74%. For the same molecule, the inhibition at 0.5 µM [25] was 3.05%, the inhibition at 0.5 µM [26] was 27.3% and the inhibition at 0.5 µM [27] was 5.08%. For the same molecule, the inhibition at 0.5 µM [28] was 1.38%, the inhibition at 0.5 µM [29] was 7.19% and the inhibition at 0.5 µM [30] was 1.17%. For the same molecule, the inhibition at 0.5 µM [31] was -11.8%, the inhibition at 0.5 µM [32] was 3.21% and the inhibition at 0.5 µM [33] was 2.66%. It also gave an inhibition at 0.5 µM [34] of 1.6%, an inhibition at 0.5 µM [35] of 4.45% and an inhibition at 0.5 µM [36] of 98.4%. For the same molecule, the inhibition at 0.5 µM [37] was 3.19%, the inhibition at 0.5 µM [38] was 4.2% and the inhibition at 0.5 µM [39] was -0.37%. The inhibition at 0.5 µM [40] was 18.6%.
